In US8304401B2, “Compositions and methods for decreasing type III deiodinase activity to modulate adiposity and blood glucose levels” (Trustees of Dartmouth College, priority 2008, dated 2012):
pKi: −log10 of the molar value.

Key:
[1] = Wild-type mice made hypothyroid with perchlorate, epididymal fat pad weight; format: in vivo, mouse; details: 0.04% perchlorate for two months, relative weight of epididymal fat pad, P<0.01
Description: Analysis of relative weights (compared to total body weight) of male epididymal (EPI) and female parametrial white adipose tissue (WAT) indicated a significant reduction in adult D3KO mice (20% reduction in males and 35% in females, P<0.001, see FIG. 1). This reduction was more marked in aged D3KO mice (60%, P<0.001). […] These alterations were not due to the moderate hypothyroidism present in the D3KO mouse, as wild-type mice made hypothyroid with 0.04% perchlorate to a degree similar to that in D3KO mice manifested a 15% increase in EPI WAT weight (P<0.01, FIG. 3). Thus, the decreased adiposity of the D3KO mouse is both unexpected and even more striking in degree.

[2] = system: D3; details: cited from earlier work
[3] = biological target: T1, D3 (Homo sapiens, UniProt P55073); details: read-out: Ki, D3-catalyzed T3 5 deiodination; competitive inhibitor; cited from earlier work
T1 sequence (P55073 1-304): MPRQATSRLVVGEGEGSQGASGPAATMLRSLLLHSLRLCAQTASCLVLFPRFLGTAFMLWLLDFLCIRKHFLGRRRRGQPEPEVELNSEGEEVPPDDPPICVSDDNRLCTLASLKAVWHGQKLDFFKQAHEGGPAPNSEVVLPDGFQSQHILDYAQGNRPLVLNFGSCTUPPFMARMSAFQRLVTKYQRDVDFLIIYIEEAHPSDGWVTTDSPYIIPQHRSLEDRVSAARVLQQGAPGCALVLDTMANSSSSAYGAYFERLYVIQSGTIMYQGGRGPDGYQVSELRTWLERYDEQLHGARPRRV

[4] = biological target: T2, D1 (Homo sapiens, UniProt P49895); experiment: Inhibition of D1-catalyzed rT3 deiodination; format: biochemical; details: D1 much more sensitive to inhibition than D3
T2 sequence (P49895 1-249): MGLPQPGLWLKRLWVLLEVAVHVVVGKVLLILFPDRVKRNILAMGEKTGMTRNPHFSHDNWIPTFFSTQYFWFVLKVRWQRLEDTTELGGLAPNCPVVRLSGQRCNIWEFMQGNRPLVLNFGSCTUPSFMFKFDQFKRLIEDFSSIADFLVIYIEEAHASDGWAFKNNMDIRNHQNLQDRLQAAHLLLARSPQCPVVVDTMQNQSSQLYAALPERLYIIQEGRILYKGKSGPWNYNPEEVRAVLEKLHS
Description: In addition to those specifically disclosed herein, additional D3 inhibitors can be identified by the generation of analogs or derivatives of known inhibitors, which can be used as lead compounds. […] Based upon such differences, lead compounds can be generated that have excellent specificity for specific deiodinases.

[5] = biological target: T2, D1; details: competitive inhibitor; read-out: Ki, D1-catalyzed rT3 deiodination; cited from earlier work

In the case of `[O-][Cl+3]([O-])([O-])O` [perchlorate], the “increase in EPI WAT weight” value [1] was 15%.
For `CCC(Cc1c(I)cc(I)c(N)c1I)C(=O)O` (stereo not drawn) [iopanoic acid], the D3 inhibitory activity [2] is given as “effectively inhibit D3 activity”.
In the case of `O=C(O)CI` [iodoacetate], the D3 inhibitory activity [2] is given as “exhibits D3 inhibitory activity”.
In the case of `OC[C@@H](O)[C@@H](O)[C@H](O)[C@@H](O)C=S.[Au]` [gold thioglucose], the pKi [3] is listed as 5.28, the “difference in Ki between D1 and D3 inhibition” value [4] is listed as “approximately 1000 fold” and the pKi [5] is listed as 8.22.
